The values that follow come from the supplement of paper PMC11997997.

Assay [1] deals with murine bone marrow-derived macrophages. The assay is described as follows: area under cytotoxicity dose-response curve (AUC (% cytotoxicity x dose, relative)); higher = more cytotoxic. The conditions noted are these: duration: 6 days; dose range: 0.13-80 uM, 8 points. The gist of the method:
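Primary murine bone marrow-derived macrophages in opaque 384-well plates were exposed to an 8-point, 2.5-fold dilution series (final 80–0.13 μM) for 6 days at 37 °C in 5% CO2. Viability was read with Promega's CellTiter-Glo luminescence assay, and percent cytotoxicity was normalised to vehicle and positive control wells. Cytotoxicity is reported as the area under the dose–response curve, calculated in GraphPad Prism version 10.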

In assay [2] the test system is Mycobacterium tuberculosis CDC1551 (intracellular, in murine BMDM). Put plainly: area under intracellular growth-inhibition dose-response curve (AUC (% inhibition x dose, relative)); higher = more potent. The conditions noted are these: duration: 6 days; dose range: 0.13-80 uM, 8 points. The gist of the method: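 Macrophages derived from primary murine bone marrow were infected for 1 h at multiplicity of infection 1 with luciferase-expressing M. tuberculosis CDC1551, then treated for 6 days at final concentrations of 80–0.13 μM. Bright-Glo luciferin signal, normalised to a reference drug control and the lowest-concentration wells, gave the growth readout. Area under the growth-inhibition dose–response curve was then calculated in GraphPad Prism.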

For the compound `O=C(NNC(=O)c1ccc(-c2ccc([N+](=O)[O-])cc2)o1)c1ccncc1`, in assay [1], the “area under cytotoxicity dose-response curve” value was 40.4. Besides, in assay [2], the “area under intracellular growth-inhibition dose-response curve” value came out at 264.
As to `Cc1nnc(NS(=O)(=O)c2ccc(N)cc2)s1`, in assay [1], the “area under cytotoxicity dose-response curve” value was 29.3. For the same compound, the “area under intracellular growth-inhibition dose-response curve” value in assay [2] was 121.
The corresponding values for `COc1ccc(C2=NCCn3c2c2ccc(C(F)(F)F)cc2[n+]3[O-])cc1` are 108 and 95.2.
As to `COc1ccc(/C=N/NC(=O)c2ccncc2)cc1CN1CCN(c2ccc(F)cc2)CC1`, the “area under cytotoxicity dose-response curve” value in assay [1] worked out at 3.26. Also, the “area under intracellular growth-inhibition dose-response curve” value in assay [2] is 228.
Taken in the same sequence, the figures for `N#Cc1ccc(C(=O)NCC2CCCCC2)cc1` were 44.2 and 107.
As for `O=[N+]([O-])c1ccc(/C=N/Nc2nc(N3CCCCC3)nc(N3CCCCC3)n2)o1`, the “area under cytotoxicity dose-response curve” value in assay [1] was less than 0. Also, the “area under intracellular growth-inhibition dose-response curve” value in assay [2] stood at 226.
The corresponding values for `Cc1nc(SCC(=O)NCc2ccc3c(c2)OCO3)nc(C)c1C` are less than 0 and 54.6.
The corresponding values for `O=C(N/N=C/c1ccccn1)c1ccncc1` are 1.91 and 262.
The corresponding values for `Cc1cc(OCC(=O)N2CCCC2)cc(C)c1Cl` are less than 0 and 254.
On to `CCN(CC)C(=O)CSc1nnc2nnc3cc(Cl)ccc3n12`, for which the “area under cytotoxicity dose-response curve” value in assay [1] worked out at 55.1. Moreover, the “area under intracellular growth-inhibition dose-response curve” value in assay [2] was 219.
Take `CCN(CC)CCN(C(=O)C1=COCCO1)c1nc2cc(C)cc(C)c2s1.Cl`: the “area under cytotoxicity dose-response curve” value in assay [1] is 22.7. In addition, in assay [2], the “area under intracellular growth-inhibition dose-response curve” value is 227.
The corresponding values for `CCSc1nnc(NC(=O)[C@H](C)N2C(=O)C3CC=CCC3C2=O)s1` (stereo partly specified) are less than 0 and 129.
For the compound `O=S(=O)(Nc1ccc(S(=O)(=O)Nc2nccs2)cc1)c1ccc2c(c1)OCCO2`, the “area under cytotoxicity dose-response curve” value in assay [1] is less than 0. Moreover, the “area under intracellular growth-inhibition dose-response curve” value in assay [2] was determined as 77.8.
The corresponding values for `Cc1ccc(C(=O)NC2CCCCCC2)o1` are less than 0 and 263.
Taken in the same sequence, the figures for `CCN(CC)CCN(C(=O)c1ccc2c(c1)OCCO2)c1nc2cc(C)cc(C)c2s1.Cl` were 8.98 and 246.
For the compound `CC(=O)Nc1sc(N/N=C\c2ccc(O)cc2)nc1-c1cccs1`, the “area under cytotoxicity dose-response curve” value in assay [1] stood at 155. In addition, in assay [2], the “area under intracellular growth-inhibition dose-response curve” value came to 194.
The corresponding values for `O=C(CCC1CCCC1)NCc1cccs1` are 42.7 and 198.
Taken in the same sequence, the figures for `CCCc1cc(C(N)=S)ccn1` were 8.35 and 215.
On to `COc1ccc(/C=C(\NC(=O)c2ccc(C)cc2)C(=O)Nc2c(C)n(C)n(-c3ccccc3)c2=O)cc1`, for which the “area under cytotoxicity dose-response curve” value in assay [1] was 42. Moreover, in assay [2], the “area under intracellular growth-inhibition dose-response curve” value came to 50.7.
The corresponding values for `Cc1cc(OCC(=O)N2CCCC2)ccc1Cl` are 55.1 and 220.
Taken in the same sequence, the figures for `O=C(CSc1cccc[n+]1[O-])c1cc(Cl)ccc1Cl` were 47.3 and 127.
On to `O=C(NCc1cccc(C(F)(F)F)c1)c1ccc[nH]1`, for which, in assay [1], the “area under cytotoxicity dose-response curve” value was 2.14. Besides, the “area under intracellular growth-inhibition dose-response curve” value in assay [2] was 91.
`Cc1ccccc1-n1c(SCC(=O)N/N=C/c2c(C)nn(-c3ccccc3)c2C)nc2ccccc2c1=O`: the “area under cytotoxicity dose-response curve” value in assay [1] was determined as 13.8. Also, in assay [2], the “area under intracellular growth-inhibition dose-response curve” value came out at 203.
Taken in the same sequence, the figures for `CC1CCCN(c2ccc([N+](=O)[O-])s2)C1` (stereo unspecified) were less than 0 and 241.
Taken in the same sequence, the figures for `CS(=O)(=O)N1CCN(C(=O)CCC2CCCC2)CC1` were 43.1 and 159.
The corresponding values for `O=C(/C=C/c1ccccc1Cl)NCc1ccco1` are 79.7 and 174.
For the compound `COc1ccc(CNc2nc3nc4c(c(O)n3n2)CCC4)cc1`, the “area under cytotoxicity dose-response curve” value in assay [1] was determined as 15.2. Moreover, in assay [2], the “area under intracellular growth-inhibition dose-response curve” value is 140.
The corresponding values for `O=C(NCc1ccccc1Cl)c1ccc(Br)o1` are less than 0 and 120.
As for `Cc1nnc(SCC2=C(C(=O)O)N3C(=O)C(NC(=O)Cn4nc(C)c(Cl)c4C)C3SC2)s1` (stereo unspecified), the “area under cytotoxicity dose-response curve” value in assay [1] came to 82.6. For the same compound, the “area under intracellular growth-inhibition dose-response curve” value in assay [2] turned out to be 112.
Consider `Cc1ccc(C)c(NC(=O)CN2C(=O)NC(C)(c3ccc4c(c3)OCCO4)C2=O)c1` (stereo unspecified), for which the “area under cytotoxicity dose-response curve” value in assay [1] was 4.48. Besides, the “area under intracellular growth-inhibition dose-response curve” value in assay [2] is 44.8.
Taken in the same sequence, the figures for `COc1ccc(CNc2nc3nc(C)c(Cl)c(O)n3n2)cc1` were 9.37 and 186.
As for `O=C(NCc1ccco1)c1cc([N+](=O)[O-])cc([N+](=O)[O-])c1`, in assay [1], the “area under cytotoxicity dose-response curve” value is 29.1. The “area under intracellular growth-inhibition dose-response curve” value in assay [2] turned out to be 160.
The corresponding values for `CCC(=O)N1NC(=C2C(=O)N(C)C(=O)N(C)C2=O)CC1c1ccccc1` (stereo unspecified) are 23.3 and 122.
Taken in the same sequence, the figures for `O=C(Nc1ccc(NC(=S)NC(=O)c2ccco2)cc1)c1ccccc1` were 40 and 192.
Taken in the same sequence, the figures for `COc1ccc(CNc2ncc(-c3ccc(Br)cc3)n2C)cc1OC.O=C(O)C(=O)O` were 42.6 and 113.
For the compound `O=C(NCC1CCCCC1)c1ccc([N+](=O)[O-])cc1`, the “area under cytotoxicity dose-response curve” value in assay [1] turned out to be 77.6. Besides, in assay [2], the “area under intracellular growth-inhibition dose-response curve” value is 239.
Regarding `O=C(COC(=O)c1ccccc1NCCO)NCC1CCCCC1`, in assay [1], the “area under cytotoxicity dose-response curve” value came out at 58.4. Also, in assay [2], the “area under intracellular growth-inhibition dose-response curve” value amounted to 151.
As for `COc1ccc(NC(=O)/C(Cl)=C(/Cl)S(=O)Cc2ccccc2Cl)cn1` (stereo unspecified), the “area under cytotoxicity dose-response curve” value in assay [1] was 140. Besides, the “area under intracellular growth-inhibition dose-response curve” value in assay [2] is less than 0.
Consider `N#CCc1ccc(NC(=O)/C=C/c2ccc([N+](=O)[O-])o2)cc1`, for which, in assay [1], the “area under cytotoxicity dose-response curve” value was determined as 124. In addition, in assay [2], the “area under intracellular growth-inhibition dose-response curve” value amounted to 35.
The corresponding values for `O=Cc1c(Nc2cccc(C(F)(F)F)c2)nc2ccccn2c1=O` are less than 0 and 234.
With `COc1ccc(OCCCC(=O)NNC(=O)c2ccncc2)cc1`, in assay [1], the “area under cytotoxicity dose-response curve” value came to 6.62. The “area under intracellular growth-inhibition dose-response curve” value in assay [2] turned out to be 227.
Turning to `Cc1cc(C)n2nc3nc4c(cc3c2n1)CCCC4`, the “area under cytotoxicity dose-response curve” value in assay [1] is less than 0. In addition, the “area under intracellular growth-inhibition dose-response curve” value in assay [2] turned out to be 152.
The corresponding values for `O=C(c1ccc([N+](=O)[O-])o1)N1CCN(c2nc3c(F)cc(F)cc3s2)CC1` are 161 and 20.8.
Taken in the same sequence, the figures for `CC(=O)N1CCN(S(=O)(=O)c2cccc(C(=O)Nc3ccccc3N3CCCCC3)c2)CC1` were 21.9 and less than 0.
Taken in the same sequence, the figures for `COc1ccc(-c2n(C)c3ccccc3[n+]2CC(=O)OC2CC(C)CCC2C(C)C)cc1.[Cl-]` (stereo unspecified) were 117 and 140.
As for `O=C(C1COc2ccccc2O1)N1CCCCC1` (stereo unspecified), the “area under cytotoxicity dose-response curve” value in assay [1] turned out to be 76. Moreover, the “area under intracellular growth-inhibition dose-response curve” value in assay [2] worked out at 236.
The corresponding values for `CCOC(=O)c1ccccc1NC(=O)c1c(F)c(F)c(F)c(F)c1F` are less than 0 and 183.
Taken in the same sequence, the figures for `CNc1nc(SC)nc2ccsc12` were 11.7 and 221.
Taken in the same sequence, the figures for `CC1CCN(C(=O)C2CCN(c3nnc(-n4cccc4)s3)CC2)CC1` were less than 0 and 234.
As for `N#CCCn1cc(/C=N/NC(=O)c2ccncc2)c(-c2ccccc2)n1`, the “area under cytotoxicity dose-response curve” value in assay [1] is less than 0. The “area under intracellular growth-inhibition dose-response curve” value in assay [2] turned out to be 247.
Consider `Cc1nnc(SCC2=C(C(=O)O)N3C(=O)C(NC(=O)Cn4ncc(Cl)c4C)C3SC2)s1` (stereo unspecified), for which the “area under cytotoxicity dose-response curve” value in assay [1] is 66.2. In assay [2], the “area under intracellular growth-inhibition dose-response curve” value came to 245.
Taken in the same sequence, the figures for `NS(=O)(=O)c1ccc(NC(=O)c2ccc(Cl)c(S(=O)(=O)NCc3ccco3)c2)cc1` were less than 0 and 25.5.
Turning to `O=C(Nc1ccc(Br)cc1)NC1CCCCCCC1`, in assay [1], the “area under cytotoxicity dose-response curve” value was determined as 26.1. In assay [2], the “area under intracellular growth-inhibition dose-response curve” value is 263.
